Experimental data as given in patent publication US20050277602A1, “Methods employing agonists of P38 map kinase for the treatment of asthma” (priority 2004, published 2005).
“And” between values parts separate entries of the source, which are not always exact repeats. Equal entries are not always repeated. “Also recorded” adds a separate entry of the source. Where two headings read alike, the source gives them in different places.

B1: Der p1: affinity purified house dust mite allergen with intrinsic cysteine protease activity, activated with cysteine (protein, UniProt P08176 99-320, looked up)
Peptidase 1: TNACSINGNAPAEIDLRQMRTVTPIRMQGGCGSCWAFSGVAATESAYLAYRNQSLDLAEQELVDCASQHGCHGDTIPRGIEYIQHNGVVQESYYRYVAREQSCRRPNAQRFGISNYCQIYPPNVNKIREALAQTHSAIAVIIGIKDLDAFRHYDGRTIIQRDNGYQPNYHAVNIVGYSNAQGVDYWIVRNSWDTNWGDNGYGYFAANIDLMMIEEYPYVVIL

Assays:
rabbit ASM tissues [1] = test: Relaxation responses to isoproterenol in isolated rabbit ASM tissues half-maximally contracted with ACh; assay type: cell-based; conditions: for effect on relaxation responses to isoproterenol in tissues not exposed to Der p1: control ASM
Description: (§1) Following general anesthesia with xylazine (10 mg/kg) and ketamine (50 mg/kg), rabbits were sacrificed with an overdose of pentobarbital (125 mg/kg). As described previously (Grunstein et al. (2001) Am J Physiol Lung Cell Mol Physiol 280:L229-L238), the tracheae were removed via open thoracotomy, the loose connective tissue and epithelium were carefully scraped and removed, and the tracheae were divided into ring segments. Each alternate ring was incubated for 24 hours at room temperature in the presence of either vehicle (saline) alone (control), vehicle containing cysteine (5 mM), or varying concentrations of affinity purified Der p1 allergen (0.1, 0.5, 1.0, 5.0 μg/ml) both in the absence and presence of cysteine, as addition of the latter is required to restore the cysteine protease activity of the purified Der p1. In parallel experiments, 30 min prior to incubation in control or Der p1-containing medium, ASM segments were treated with either the specific cysteine protease inhibitor, E-64 (trans-epoxysuccinyl-L-leucyl-amido (4-guanidino)-butane; 1 μM), the serine protease inhibitor, leupeptin (1 μM), the MEK1/2-specific inhibitors, U0126 (5 μM) or PD98059 (10 μM), or the specific p38 MAP kinase inhibitors, SB202190 (10 μM) or SB203580 (10 μM).
(§2) Following incubation, the ASM segments were placed in organ baths containing modified Krebs-Ringer solution aerated with 5% CO2 in oxygen (pH: 7.35-7.40), and the tissues were attached to force transducers from which isometric tension was continuously monitored on a multichannel recorder, as previously described (Hirst et al. (2002) Am J Respir Crit Care Med 165:1161-71). Cholinergic contractility was then assessed in the ASM segments by cumulative administration of acetylcholine (ACh; 10^−10 to 10^−4 M). Thereafter, the tissues were repeatedly rinsed with fresh buffer, and subsequent relaxation responses to isoproterenol (10^−10-10^−4 M) were generated after the tissues were half-maximally contracted with ACh. The constrictor dose-response curves to ACh were analyzed in terms of each tissue's maximal isometric contractile force (Tmax) to the agonist, and the relaxation responses to isoproterenol were assessed in terms of % maximal relaxation (Rmax) from the initial level of induced cholinergic contraction, and sensitivity to the relaxing agent was determined as the corresponding pD50 value (i.e., geometric mean ED50 value) associated with 50% of Rmax.

rabbit ASM tissues [2] = test: Constrictor responses to acetylcholine in isolated rabbit ASM tissues (organ bath, isometric tension); assay type: cell-based; conditions: for effect on constrictor responses to ACh in tissues not exposed to Der p1: control (vehicle-exposed) ASM; for maximal constrictor response (Tmax) to ACh: mean±SE
Description: as §1, §2

ERK1/2 = test: Immunoblot analysis of phosphorylated ERK1/2 in rabbit ASM tissues; assay type: cell-based; conditions: for effect on Der p1-induced expression of phosphorylated ERK1/2: Der p1-exposed ASM pretreated/co-treated with E-64, SB202190 or anisomycin (50 ng/ml)
Description: (§3) Protein levels of phosporylated and total ERK1/2 and p38 MAP kinase were assessed by Western blot analysis of whole cell lysates isolated from rabbit ASM tissues following treatment with either vehicle alone or cysteine-activated Der p1 (1 μg/ml), both in the absence and presence of E-64, SB202190, or anisomycin. The tissues were homogenized and proteins extracted in a buffer containing 50 mM Tris-HC 1,150 mM NaCl, 1 mM EDTA (pH 7.4) with 1 mM phenylmethylsulfonyl fluoride, 5 μg/mL aprotinin, and 5 μg/mL leupeptin. Following removal of insoluble debris by centrifugation, gel-loading buffer was added to the supernatants, and extracts were then loaded (using 30 μg total protein/sample) on a 10% SDS-PAGE gel for immunoblotting after transferring to a nitrocellulose membrane. The membranes were blocked with 5% nonfat dry milk and then incubated overnight with monoclonal mouse anti-human phosphotyrosine-threonine (Thr180/Tyr182)-p38 MAP kinase and p38 MAP kinase, and anti-human phosphotyrosine-threonine (Thr202/Tyr204)-p44/42 (ERK1/2) and p44/42 primary antibodies. The kinase levels were detected using enhanced chemiluminescence after a 1-hour incubation with a 1:1,000 dilution of horseradish peroxidase (HRP)-conjugated goat-anti-mouse secondary antibody, followed by exposure to autoradiography film. Protein band intensities were quantified using Alphalmager, and the data normalized relative to those obtained in untreated ASM samples.

HL-60 leukemia cells = conditions: cited from earlier work
p38 MAP kinase = test: Immunoblot analysis of phosphorylated p38 MAP kinase in rabbit ASM tissues; assay type: cell-based; conditions: for expression of phosphorylated p38 MAP kinase relative to control (unstimulated) ASM: tissues exposed for 30 min, anisomycin 50 ng/ml or Der p1 alone
Description: as §3

[3] = tested on: cultured human ASM (HASM) cells; test: IgE-induced release of IL-6 from cultured human ASM cells (ELISA); assay type: cell-based
Description: Human airway smooth muscle cells were purchased from BioWhittaker, Inc., (Walkersville, […].) The cells were cultured in 100 mm dishes in Ham's F 12 nutrient mixture (Invitrogen, Carlsbad Calif.) supplemented with 10% FBS (Hyclone, Logan, Utah) under 5% CO2 environment. After attaining 90% confluence in cell culture, the cells were used for the studies described in Example 2.
Preparations of IgE immune complexes containing human IgE and mouse monoclonal IgG2B (anti-IgE) (Biodesign International, Saco, Me.) at a 15/5 μg ratio were added to cells 24 hr after serum deprivation. The cells were harvested at the indicated time points for immunoblotting and media were collected for ELISA analysis as described below.
IL 6 accumulation in the ASM cell culture media was detected using an ELISA kit for IL 6 purchased from Research Diagnostics Inc. (Flanders, N.J.). Culture media was diluted 1:50 into a sample dilution buffer supplied in the kit. The experiments were carried out according to the manufacturer's protocol.

OVA-sensitized mice = OVA-sensitized mice treated with U0126; cited from earlier work
ASM preparations = test: Intracellular cAMP accumulation in ASM preparations (EIA); assay type: cell-based, rabbit; conditions: tissues exposed to Der p1; data not shown
Description: Intracellular cAMP levels were assayed in control (untreated) and Der p1-treated ASM preparations under baseline (unstimulated) conditions and at 10 min following administration of isoproterenol (0.1-10 μM). Following stimulation with isoproterenol, the tissues were homogenized and the cAMP levels were measured using the Form a A cyclic AMP “PLUS” EIA kit (Biomol Inc., Plymouth Meeting, Pa.) following manufacturer's protocol.

[4] = Der p1-exposed ASM, E-64 1 μM, leupeptin 1 μM, U0126 5 μM, PD98059 10 μM, SB202190/SB203580 10 μM, anisomycin 50 ng/ml
[5] = Der p1-exposed tissues, densitometry, 4 experiments
[6] = Der p1 not pre-activated with cysteine (inactivated), data not shown

Molecule	effect of pretreatment on Der p1-induced impaired relaxation responsiveness to isoproterenol (rabbit ASM tissues [1]; [4])	effect of pretreatment on Der p1-induced enhanced constrictor responsiveness to ACh (rabbit ASM tissues [2]; [4])	effect on relaxation responses to isoproterenol in tissues not exposed to Der p1 (rabbit ASM tissues [1])	effect on constrictor responses to ACh in tissues not exposed to Der p1 (rabbit ASM tissues [2])	effect on Der p1-induced expression of phosphorylated ERK1/2 (ERK1/2)	other results
CC(=O)N[C@@H](CC(C)C)C(=O)N[C@@H](CC(C)C)C(=O)N[C@H](C=O)CCCNC(=N)N [leupeptin]	unaffected	unaffected	–	–	–	–
C[S+]([O-])c1ccc(-c2nc(-c3ccncc3)c(-c3ccc(F)cc3)[nH]2)cc1 (centres unmarked) [SB203580]	qualitatively comparable opposing effects	qualitatively comparable opposing effects	neither of these inhibitors produced a significant change	neither of these inhibitors produced a significant change	–	–
COc1ccc(C[C@H]2NC[C@H](O)[C@H]2OC(C)=O)cc1 [anisomycin]	largely prevented	completely abrogated	no significant effect	no effect	largely abrogated	effect on phosphorylated ERK1/2 expression in unstimulated ASM (ERK1/2; anisomycin 50 ng/ml, 30 min, no Der p1): essentially no effect; stimulated ERK activity (HL-60 leukemia cells; stimulated HL-60 cells): inhibits; basal ERK activity (HL-60 leukemia cells; unstimulated HL-60 cells): no effect; expression of phosphorylated p38 MAP kinase relative to control (unstimulated) ASM (p38 MAP kinase): increased expression
N#CC(=C(/N)Sc1ccccc1N)/C(C#N)=C(\N)Sc1ccccc1N [U0126]	–	–	–	–	–	effect on IgE-induced release of IL-6 ([3]; IgE-exposed HASM cells, concomitant pretreatment with U-0126): completely abrogated; effect of pretreatment on Der p1-induced impaired relaxation responsiveness to isoproterenol (rabbit ASM tissues [1]): largely ablated; effect of pretreatment on Der p1-induced enhanced constrictor responsiveness to ACh (rabbit ASM tissues [2]): completely abrogated; airway hyperresponsiveness, elevated intrapulmonary eosinophil counts and cytokine levels (OVA-sensitized mice): significantly inhibit
COc1cccc(-c2cc(=O)c3ccccc3o2)c1N [PD98059]	qualitatively comparable opposing effects; also recorded: largely prevented	qualitatively comparable opposing effects; also recorded: largely prevented	neither of these inhibitors produced a significant change	neither of these inhibitors produced a significant change	–	–
Oc1ccc(-c2nc(-c3ccncc3)c(-c3ccc(F)cc3)[nH]2)cc1 [SB202190]	further significantly impaired	further augmented	–	–	distinctly enhanced	IgE-induced release of IL-6, augmented ([3]; IgE-exposed HASM cells pretreated with SB-202190): approximately 9 fold; maximal relaxation (Rmax) to isoproterenol (rabbit ASM tissues [1]; Der p1-exposed tissues pretreated with SB202190 (10 μM), mean): 37.6±7.1%; maximal constrictor response (Tmax) to ACh (rabbit ASM tissues [2]; Der p1-exposed tissues pretreated with SB202190 (10 μM)): 136.2±6.2 g/g ASM wt.
CC(C)C[C@H](NC(=O)[C@H]1O[C@@H]1C(=O)O)C(=O)NCCCCN=C(N)N (relative stereo) [E-64, trans-epoxysuccinyl-L-leucyl-amido (4-guanidino)-butane]	prevented	largely abrogated	no effect	no effect	neither the levels of phosphorylated ERK1/2 nor p38 MAP kinase were appreciably altered	effect on Der p1-induced expression of phosphorylated p38 MAP kinase (p38 MAP kinase): neither the levels of phosphorylated ERK1/2 nor p38 MAP kinase were appreciably altered
B1	–	–	–	–	–	maximal enhanced expression of phosphorylated ERK1/2 above basal (pretreatment) level (ERK1/2; [5]): 5.8 fold; isoproterenol-induced cAMP accumulation relative to control (untreated) ASM (ASM preparations): reduced; maximal enhanced expression of phosphorylated p38 MAP kinase above basal (pretreatment) level (p38 MAP kinase; [5]): 3.2 fold; expression of phosphorylated p38 MAP kinase relative to control (unstimulated) ASM (p38 MAP kinase): increased expression; sensitivity to isoproterenol (pD50) (rabbit ASM tissues [1]; ASM exposed 24 h to Der p1, mean±SE): 5.99±0.04 -log M; maximal relaxation (Rmax) to isoproterenol (rabbit ASM tissues [1]; ASM exposed 24 h to cysteine-activated Der p1, mean±SE): 37.9±4.9% and 48.8±4.7%; effect on relaxant responsiveness (rabbit ASM tissues [1]; [6]): no effect; maximal constrictor response (Tmax) to ACh (rabbit ASM tissues [2]; ASM exposed 24 h to cysteine-activated Der p1 (1 μg/ml)): 133.7±8.4 g/g ASM wt. and 123.8±6.5 g/g ASM wt. and 119.0±8.2 g/g ASM wt.; effect on constrictor responsiveness (rabbit ASM tissues [2]; [6]): no effect
